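48-hour exposure; five concentrations; linearly interpolated endpoints. Here, GI50 denotes the concentration required for 50% inhibition of growth.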 The source made the active and inactive calls. Rule as the data show it: active = GI50 up to about 1.1 µM and inactive = higher.
Columns and labels:
Experiment in all cases: DTP human tumour cell line panel, 48 h
[1] = test system: PC-3
[2] = test system: SNB-75
[3] = test system: SK-MEL-2
[4] = test system: RPMI-8226
[5] = test system: SF-295
[6] = test system: SK-MEL-28
[7] = test system: TK-10
[8] = test system: NCI-H460
[9] = test system: A549
[10] = test system: LOX IMVI
[11] = test system: MDA-N
[12] = test system: SF-539
[13] = test system: SR
[14] = test system: SF-268
[15] = test system: NCI-H522
[16] = test system: OVCAR-8
[17] = test system: SNB-19
[18] = test system: U-251
[19] = test system: ACHN
[20] = test system: MCF7
[21] = test system: M14
[22] = test system: KM12
[23] = test system: K562
[24] = test system: SW-620
[25] = test system: Hs-578T
[26] = test system: COLO 205
[27] = test system: T47D
[28] = test system: HCT-116
[29] = test system: EKVX
[30] = test system: HOP-62
[31] = test system: HCT-15
[32] = test system: UACC-62
[33] = test system: HCC 2998
[34] = test system: HL-60
[35] = test system: NCI-H226
[36] = test system: OVCAR-4
[37] = test system: HT-29
[38] = test system: BT-549
[39] = test system: HOP-92
[40] = test system: OVCAR-3
[41] = test system: NCI-H23
[42] = test system: SN12C
[43] = test system: DU-145
[44] = test system: SK-MEL-5
[45] = test system: MOLT-4
[46] = test system: 786-0
[47] = test system: MDA-MB-435
[48] = test system: MDA-MB-231
[49] = test system: CAKI-1
[50] = test system: RXF 393
[51] = test system: CCRF-CEM
[52] = test system: IGROV-1
[53] = test system: UACC-257
[54] = test system: SK-OV-3
[55] = test system: A498
[56] = test system: NCI/ADR-RES
[57] = test system: UO-31
[58] = test system: KM-20L2
[59] = test system: Malme-3M
[60] = test system: DMS-114
[61] = test system: M19-MEL
[62] = test system: DMS-273
[63] = test system: LXFL 529
[64] = test system: SNB-78

Cc1ccnc2nc(-c3cccc(Cl)c3)cc(O)c12
GI50 [1]: 0.0206 µM (active)
GI50 [2]: > 10 µM (inactive)
GI50 [3]: 0.0675 µM (active)
GI50 [4]: 0.0356 µM (active)
GI50 [5]: 0.0426 µM (active)
GI50 [6]: 1.9 µM (inactive)
GI50 [7]: > 100 µM (inactive)
GI50 [8]: 0.0386 µM (active)
GI50 [9]: 0.0748 µM (active)
GI50 [10]: 0.155 µM (active)
GI50 [11]: 0.0108 µM (active)
GI50 [12]: 0.0906 µM (active)
GI50 [13]: 0.0325 µM (active)
GI50 [14]: 20.7 µM (inactive)
GI50 [15]: 0.0459 µM (active)
GI50 [16]: 0.308 µM (active)
GI50 [17]: 0.132 µM (active)
GI50 [18]: 0.0596 µM (active)
GI50 [19]: 1.34 µM (inactive)
GI50 [20]: 0.36 µM (active)
GI50 [21]: 0.0822 µM (active)
GI50 [22]: 0.0682 µM (active)
GI50 [23]: < 0.0143 µM (active)
GI50 [24]: 0.0524 µM (active)
GI50 [25]: 0.44 µM (active)
GI50 [26]: 0.0598 µM (active)
GI50 [27]: > 100 µM (inactive)
GI50 [28]: 0.0269 µM (active)
GI50 [29]: > 100 µM (inactive)
GI50 [30]: 0.0708 µM (active)
GI50 [31]: 0.0407 µM
GI50 [32]: 0.0474 µM (active)
GI50 [33]: 0.224 µM (active)
GI50 [34]: 0.0115 µM (active)
GI50 [35]: 3.4 µM (inactive)
GI50 [36]: > 91.4 µM (inactive)
GI50 [37]: 0.0401 µM (active)
GI50 [38]: 1.65 µM (inactive)
GI50 [39]: 2.43 µM (inactive)
GI50 [40]: 0.0279 µM (active)
GI50 [41]: 0.826 µM (active)
GI50 [42]: 0.139 µM (active)
GI50 [43]: 0.495 µM (active)
GI50 [44]: 0.038 µM (active)
GI50 [45]: 0.0658 µM (active)
GI50 [46]: 0.08 µM (active)
GI50 [47]: < 0.01 µM (active)
GI50 [48]: 0.108 µM (active)
GI50 [49]: 1.33 µM (inactive)
GI50 [50]: 2.77 µM (inactive)
GI50 [51]: 0.0553 µM (active)
GI50 [52]: 0.185 µM (active)
GI50 [53]: > 100 µM (inactive)
GI50 [54]: 0.267 µM (active)
GI50 [55]: 0.234 µM (active)
GI50 [56]: 0.1 µM (active)

CSCC(COC(C)=O)(CSC)c1ccncc1
GI50 [2]: 85.7 µM (inactive)
GI50 [3]: > 100 µM (inactive)
GI50 [4]: > 100 µM (inactive)
GI50 [57]: > 100 µM (inactive)
GI50 [5]: > 100 µM (inactive)
GI50 [6]: > 100 µM (inactive)
GI50 [7]: > 100 µM (inactive)
GI50 [8]: > 100 µM (inactive)
GI50 [9]: > 100 µM (inactive)
GI50 [10]: > 100 µM (inactive)
GI50 [58]: > 100 µM (inactive)
GI50 [12]: > 100 µM (inactive)
GI50 [13]: > 100 µM (inactive)
GI50 [14]: > 100 µM (inactive)
GI50 [15]: > 100 µM (inactive)
GI50 [16]: > 100 µM (inactive)
GI50 [17]: > 100 µM (inactive)
GI50 [18]: > 100 µM (inactive)
GI50 [19]: > 100 µM (inactive)
GI50 [59]: > 100 µM (inactive)
GI50 [21]: > 100 µM (inactive)
GI50 [22]: > 100 µM (inactive)
GI50 [23]: > 100 µM (inactive)
GI50 [24]: > 100 µM (inactive)
GI50 [26]: > 100 µM (inactive)
GI50 [28]: > 100 µM (inactive)
GI50 [29]: > 100 µM (inactive)
GI50 [30]: > 100 µM (inactive)
GI50 [31]: > 100 µM
GI50 [32]: > 100 µM (inactive)
GI50 [33]: > 100 µM (inactive)
GI50 [60]: > 100 µM (inactive)
GI50 [61]: > 100 µM (inactive)
GI50 [34]: > 100 µM (inactive)
GI50 [36]: > 100 µM (inactive)
GI50 [37]: > 100 µM (inactive)
GI50 [40]: > 100 µM (inactive)
GI50 [41]: > 100 µM (inactive)
GI50 [42]: > 100 µM (inactive)
GI50 [44]: 53.6 µM (inactive)
GI50 [45]: > 100 µM (inactive)
GI50 [46]: > 100 µM (inactive)
GI50 [62]: > 100 µM (inactive)
GI50 [63]: > 100 µM (inactive)
GI50 [49]: > 100 µM (inactive)
GI50 [64]: > 100 µM (inactive)
GI50 [50]: > 100 µM (inactive)
GI50 [51]: > 100 µM (inactive)
GI50 [52]: > 100 µM (inactive)
GI50 [53]: > 100 µM (inactive)
GI50 [54]: > 100 µM (inactive)
GI50 [55]: > 100 µM (inactive)

From ChEMBL document CHEMBL1201862, “PubChem BioAssay data set” (2004)
